From patent US6537527B1, “Skin lightening compositions” (Children's Hospital Medical Center, priority 1994, dated 2003)

Test: Stability under selective acid hydrolysis in pH 5 buffer
Assay type: physicochemical
Details: pH 5 buffer solution
Protocol: To a stirred suspension comprising the benzyl protected intermediate (1.0 equiv.), 5% Pd/C (0.07 equiv.) and methanol is added 55% hydrazine hydrate (˜20 equiv.). The reaction mixture is slowly heated and maintained at reflux under an inert atmosphere until TLC analysis indicates complete consumption of starting material. Reaction mixture is cooled to room temperature, filtered through celite to remove catalyst and volatiles removed in-vacuo. Residue is then subjected to low pressure column chromatography with 7:3 hexane:ethyl acetate as eluent. Composition and purity of isolated white solid as determined by ^1H and ^13C NMR is consistent with the brominated compound shown.

Oc1ccc(O[C@H]2OCCC[C@@H]2Br)cc1 [Iii]
stability to acid hydrolysis: stable under these conditions
